# Source: patent US12172995B2, “Substituted indole and indazole compounds” (BRISTOL-MYERS SQUIBB COMPANY, priority 2018, dated 2024)
# Columns and labels:
# Format in all cases: cell-based
# [1] = biological target: T1, human TLR7 (Homo sapiens, UniProt Q9NYK1); assay: TLR7 inhibition reporter assay (HEK-Blue SEAP); settings: HEK-Blue cells overexpressing human TLR7, stimulated with gardiquimod 7.5 μM, 22 hour incubation
# T1 construct: host or cells: HEK-Blue cells
# T1 sequence (Q9NYK1 27-1049): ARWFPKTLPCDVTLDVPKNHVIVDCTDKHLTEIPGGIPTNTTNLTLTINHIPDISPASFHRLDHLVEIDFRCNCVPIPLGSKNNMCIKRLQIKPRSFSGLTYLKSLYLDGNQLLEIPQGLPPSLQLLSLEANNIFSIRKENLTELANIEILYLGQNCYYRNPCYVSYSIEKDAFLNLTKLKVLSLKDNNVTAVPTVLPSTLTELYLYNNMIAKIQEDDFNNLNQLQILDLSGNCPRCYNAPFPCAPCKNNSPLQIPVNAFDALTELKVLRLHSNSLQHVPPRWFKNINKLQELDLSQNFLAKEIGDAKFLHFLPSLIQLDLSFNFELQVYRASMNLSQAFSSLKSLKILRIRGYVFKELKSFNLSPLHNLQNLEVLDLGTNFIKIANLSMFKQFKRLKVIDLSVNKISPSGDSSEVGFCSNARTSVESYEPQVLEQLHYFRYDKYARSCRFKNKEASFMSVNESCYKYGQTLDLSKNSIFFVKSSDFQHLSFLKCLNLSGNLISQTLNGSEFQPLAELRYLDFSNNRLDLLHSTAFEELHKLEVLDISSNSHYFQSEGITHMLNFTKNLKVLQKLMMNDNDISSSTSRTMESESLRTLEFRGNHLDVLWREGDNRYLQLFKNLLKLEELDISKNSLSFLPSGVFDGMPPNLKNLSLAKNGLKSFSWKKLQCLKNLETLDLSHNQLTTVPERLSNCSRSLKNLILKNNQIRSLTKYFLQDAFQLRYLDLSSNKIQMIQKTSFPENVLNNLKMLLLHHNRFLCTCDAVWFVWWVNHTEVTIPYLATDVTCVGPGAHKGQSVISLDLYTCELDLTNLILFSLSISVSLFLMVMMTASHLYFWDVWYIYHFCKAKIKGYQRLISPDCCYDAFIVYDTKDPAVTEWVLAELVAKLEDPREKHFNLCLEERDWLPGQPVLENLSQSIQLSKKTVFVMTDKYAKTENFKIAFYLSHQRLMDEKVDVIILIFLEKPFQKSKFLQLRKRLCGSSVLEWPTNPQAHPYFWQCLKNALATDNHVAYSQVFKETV
# Outline: (§1)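 HEK-Blue cells overexpressing human TLR7, TLR8 or TLR9 with an NF-κB/AP-1-driven SEAP reporter were pre-treated 30 min at room temperature with compound (0.05 nM to 50 μM), then stimulated with gardiquimod 7.5 μM (TLR7), R848 15.9 μM (TLR8) or ODN2006 5 nM (TLR9). SEAP measured after 22 h at 37° C; inhibition normalized between agonist-plus-DMSO and reference-inhibitor wells.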
# [2] = biological target: T2, human TLR8 (Homo sapiens, UniProt Q9NR97); assay: TLR8 inhibition reporter assay (HEK-Blue SEAP); settings: HEK-Blue cells overexpressing human TLR8, stimulated with R848 15.9 μM, 22 hour incubation
# T2 construct: host or cells: HEK-Blue cells
# T2 sequence (Q9NR97 27-1041): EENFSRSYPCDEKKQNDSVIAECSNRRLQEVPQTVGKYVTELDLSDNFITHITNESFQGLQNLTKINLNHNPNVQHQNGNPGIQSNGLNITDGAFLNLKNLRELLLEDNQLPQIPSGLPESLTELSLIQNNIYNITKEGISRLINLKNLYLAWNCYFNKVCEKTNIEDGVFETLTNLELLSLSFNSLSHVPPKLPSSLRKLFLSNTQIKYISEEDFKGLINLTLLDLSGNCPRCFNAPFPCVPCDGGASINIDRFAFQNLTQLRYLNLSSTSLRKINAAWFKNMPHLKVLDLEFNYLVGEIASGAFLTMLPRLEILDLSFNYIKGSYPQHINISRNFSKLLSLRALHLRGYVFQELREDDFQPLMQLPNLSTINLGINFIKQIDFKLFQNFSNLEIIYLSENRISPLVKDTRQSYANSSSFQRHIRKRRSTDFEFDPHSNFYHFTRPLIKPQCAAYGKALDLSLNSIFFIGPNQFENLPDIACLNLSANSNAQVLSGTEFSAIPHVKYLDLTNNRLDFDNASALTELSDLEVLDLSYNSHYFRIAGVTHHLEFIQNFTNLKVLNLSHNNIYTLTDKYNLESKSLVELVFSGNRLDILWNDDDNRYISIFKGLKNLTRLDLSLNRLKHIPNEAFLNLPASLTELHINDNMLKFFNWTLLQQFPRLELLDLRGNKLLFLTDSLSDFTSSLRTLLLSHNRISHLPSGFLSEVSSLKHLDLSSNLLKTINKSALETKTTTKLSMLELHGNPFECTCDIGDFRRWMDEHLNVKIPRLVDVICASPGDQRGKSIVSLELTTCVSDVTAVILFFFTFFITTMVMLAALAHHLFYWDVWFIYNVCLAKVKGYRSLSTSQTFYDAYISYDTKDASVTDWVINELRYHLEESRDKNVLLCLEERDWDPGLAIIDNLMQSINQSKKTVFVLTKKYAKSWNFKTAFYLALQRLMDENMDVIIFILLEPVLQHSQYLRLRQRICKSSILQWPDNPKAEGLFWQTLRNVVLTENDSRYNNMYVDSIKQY
# Outline: as §1
# [3] = biological target: T3, human TLR9 (Homo sapiens, UniProt Q9NR96); assay: TLR9 inhibition reporter assay (HEK-Blue SEAP); settings: HEK-Blue cells overexpressing human TLR9, stimulated with ODN2006 5 nM, 22 hour incubation
# T3 construct: host or cells: HEK-Blue cells
# T3 sequence (Q9NR96 26-1032): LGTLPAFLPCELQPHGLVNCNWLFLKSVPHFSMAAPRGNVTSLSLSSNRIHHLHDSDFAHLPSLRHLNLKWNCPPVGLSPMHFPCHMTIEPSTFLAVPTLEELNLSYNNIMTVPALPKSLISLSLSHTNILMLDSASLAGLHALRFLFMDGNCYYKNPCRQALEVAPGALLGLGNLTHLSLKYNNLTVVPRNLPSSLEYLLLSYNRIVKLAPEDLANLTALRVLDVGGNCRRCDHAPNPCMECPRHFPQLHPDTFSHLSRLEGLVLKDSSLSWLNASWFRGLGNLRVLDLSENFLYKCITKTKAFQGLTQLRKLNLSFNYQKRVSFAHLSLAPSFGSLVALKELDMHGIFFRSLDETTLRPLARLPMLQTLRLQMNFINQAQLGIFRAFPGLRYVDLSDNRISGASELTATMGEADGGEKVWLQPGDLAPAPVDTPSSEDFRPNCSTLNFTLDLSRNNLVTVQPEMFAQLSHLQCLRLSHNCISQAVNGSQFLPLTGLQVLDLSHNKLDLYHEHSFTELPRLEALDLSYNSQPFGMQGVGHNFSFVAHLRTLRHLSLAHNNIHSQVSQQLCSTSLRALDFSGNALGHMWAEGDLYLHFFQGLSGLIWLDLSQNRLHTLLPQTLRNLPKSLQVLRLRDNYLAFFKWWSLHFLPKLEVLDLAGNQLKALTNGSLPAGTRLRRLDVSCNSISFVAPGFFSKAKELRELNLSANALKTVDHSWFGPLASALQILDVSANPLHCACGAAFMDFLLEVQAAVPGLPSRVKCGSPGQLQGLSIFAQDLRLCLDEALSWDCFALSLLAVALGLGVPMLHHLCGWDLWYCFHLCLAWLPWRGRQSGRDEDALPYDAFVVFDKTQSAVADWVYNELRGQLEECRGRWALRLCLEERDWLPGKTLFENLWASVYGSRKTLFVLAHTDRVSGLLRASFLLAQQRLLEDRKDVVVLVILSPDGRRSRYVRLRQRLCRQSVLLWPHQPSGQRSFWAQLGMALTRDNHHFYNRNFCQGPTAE
# Outline: as §1
SMILES,IC50 [1],IC50 [2],IC50 [3]
"Cc1cc2c(C3CCCNC3)n[nH]c2cc1-c1cc(C)c(=O)n(C)c1 (stereo not drawn) [Example 46, 1,3-dimethyl-5-(5-methyl-3-(piperidin-3-yl)-1H-indazol-6-yl)pyridin-2(1H)-one]",124 nM,2.1 nM,1040 nM
"Cc1cc2c(C3CCCNC3)n[nH]c2cc1-c1cn2ncnc2c(C)c1C (stereo not drawn) [Example 48, 7,8-dimethyl-6-(5-methyl-3-(piperidin-3-yl)-1H-indazol-6-yl)-[1,2,4]triazolo[1,5-a]pyridine]",47.6 nM,2.5 nM,2310 nM
"Cc1cc2c(C3CNC3)n[nH]c2cc1-c1cc(C)c2ncnn2c1 [Example 49, 6-(3-(azetidin-3-yl)-5-methyl-1H-indazol-6-yl)-8-methyl-[1,2,4]triazolo[1,5-a]pyridine]",174 nM,15.3 nM,1890 nM
"Cc1cc(-c2cc3[nH]nc(C4CCCNC4)c3cc2C)cc(C)n1 (stereo not drawn) [Example 50, 6-(2,6-dimethylpyridin-4-yl)-5-methyl-3-(piperidin-3-yl)-1H-indazole]",63.4 nM,1.5 nM,404 nM
"Cc1cc2c(C3CCCN(CC(=O)N(C)C)C3)n[nH]c2cc1-c1cc(C)c2ncnn2c1 (stereo not drawn) [Example 53, N,N-dimethyl-2-(3-(5-methyl-6-(8-methyl-[1,2,4]triazolo[1,5-a]pyridin-6-yl)-1H-indazol-3-yl)piperidin-1-yl)acetamide]",44.2 nM,1.2 nM,5830 nM
"Cc1cc2c(C3CCCNC3)n[nH]c2cc1-c1ccc2ncnn2c1 (stereo not drawn) [Example 58, 6-(5-methyl-3-(piperidin-3-yl)-1H-indazol-6-yl)-[1,2,4]triazolo[1,5-a] pyridine]",76.2 nM,2.8 nM,661 nM
"Cc1cc(-c2cc(C)c3ncnn3c2)cc2[nH]nc(C3CCCN(C4CCOCC4)C3)c12 (stereo not drawn) [Example 60, 8-methyl-6-(4-methyl-3-(1-(tetrahydro-2H-pyran-4-yl)piperidin-3-yl)-1H-indazol-6-yl)-[1,2,4]triazolo[1,5-a]pyridine]",79.3 nM,62.2 nM,4250 nM
"COc1ccc(-c2cc3[nH]nc(C4CCCNC4)c3cc2C)cc1OC (stereo not drawn) [Example 62, 6-(3,4-dimethoxyphenyl)-5-methyl-3-(piperidin-3-yl)-1H-indazole]",824 nM,5.2 nM,3200 nM

# These reach a lower IC50 [1]. Values come first.
IC50 [1],IC50 [2],IC50 [3],SMILES
19.2 nM,0.7 nM,≥ 50000 nM,"COc1cc(-c2cc3[nH]nc(C4CCCNC4)c3cc2C)cn2ncnc12 (stereo not drawn) [Example 45, 8-methoxy-6-(5-methyl-3-(piperidin-3-yl)-1H-indazol-6-yl)-[1,2,4]triazolo[1,5-a]pyridine]"
22.9 nM,0.2 nM,2880 nM,"Cc1cc2c(C3CCCNC3)n[nH]c2cc1-c1cn(C)c2ncccc12 (stereo not drawn) [Example 47, 5-methyl-6-(1-methyl-1H-pyrrolo[2,3-b]pyridin-3-yl)-3-(piperidin-3-yl)-1H-indazole]"
4.7 nM,19.6 nM,287 nM,"Cc1cc(-c2cc(C)c3ncnn3c2)cc2[nH]nc(C3CCCNC3)c12 (stereo not drawn) [Example 51, 8-methyl-6-(4-methyl-3-(piperidin-3-yl)-1H-indazol-6-yl)-[1,2,4]triazolo[1,5-a]pyridine]"
41 nM,6.4 nM,5270 nM,"Cc1cc2c(C3CCCN(C(=O)CN(C)C)C3)n[nH]c2cc1-c1cc(C)c2ncnn2c1 (stereo not drawn) [Example 54, 2-(dimethylamino)-1-(3-(5-methyl-6-(8-methyl-[1,2,4]triazolo[1,5-a]pyridin-6-yl)-1H-indazol-3-yl)piperidin-1-yl)ethan-1-one]"
12.2 nM,1.7 nM,4940 nM,"Cc1cc2c(C3CCCN(C(=O)CN(C)C)C3)n[nH]c2cc1-c1cc(C)c2ncnn2c1 (stereo not drawn) [Example 56, 2-(dimethylamino)-1-(3-(5-methyl-6-(8-methyl-[1,2,4]triazolo[1,5-a]pyridin-6-yl)-1H-indazol-3-yl)piperidin-1-yl)ethan-1-one]"
19.9 nM,4.5 nM,6900 nM,"Cc1cc2c(C3CCCN(CC(=O)N(C)C)C3)n[nH]c2cc1-c1cc(C)c2ncnn2c1 (stereo not drawn) [Example 57, N,N-dimethyl-2-(3-(5-methyl-6-(8-methyl-[1,2,4]triazolo[1,5-a]pyridin-6-yl)-1H-indazol-3-yl)piperidin-1-yl)acetamide]"
10.5 nM,43.9 nM,3210 nM,"Cc1cc(-c2cc(C)c3ncnn3c2)cc2[nH]nc(C3CCCN(CC(=O)N(C)C)C3)c12 (stereo not drawn) [Example 59, N,N-dimethyl-2-(3-(4-methyl-6-(8-methyl-[1,2,4]triazolo[1,5-a]pyridin-6-yl)-1H-indazol-3-yl)piperidin-1-yl)acetamide]"
13.5 nM,19.5 nM,3340 nM,"Cc1cc(-c2cc(C)c3ncnn3c2)cc2[nH]nc(C3CCCN(C)C3)c12 (stereo not drawn) [Example 61, 8-methyl-6-(4-methyl-3-(1-methylpiperidin-3-yl)-1H-indazol-6-yl)-[1,2,4]triazolo[1,5-a]pyridine]"
